Data published in US20140088069A1, “NOVEL ANTIBACTERIAL COMBINATION THERAPY” (priority 2011, published 2014).
Like-named read-outs stand apart in the source and are kept apart here.

Tests used:
CA-MRSA USA300 = test: Checkerboard (FIC) analysis against CA-MRSA USA300; type: cell-based, Staphylococcus aureus; details: for MIC: Staphylococcus aureus
Method: (§1) Here a matrix of drug concentrations were tested in combinations at the concentrations shown (μg/mL). Greyscale indicates growth—darker is more growth, lighter is less growth. FIC index is a measure of synergy and is calculated as follows: FIC index=FIC (cefuroxime)+FIC (drug compound).
(§2) The combination of ticlopidine and cefuroxime was further tested as above against a variety of S. aureus strains as shown in Table 1 below.
FIC index=FIC (β-lactam)+FTC (ticlopidine). […]

MRSA = test: Analogues in combination with cefuroxime against MRSA (FIC index); type: cell-based, Staphylococcus aureus
Method: A series of analogues were synthesized (as shown in Table 5) in which the thienopyridine ring was removed.
These were tested in combination with cefuroxime against MRSA and results are shown below (Table 6).

HA-MRSA [1] = test: Checkerboard (FIC) analysis, HA-MRSA (Table 1 r16); type: cell-based, Staphylococcus aureus; details: for MIC: Staphylococcus aureus
RN4220 = test: Checkerboard (FIC) analysis, RN4220; type: cell-based, Staphylococcus aureus
Method: (§3) Here a matrix of drug concentrations were tested in combinations at the concentrations shown (μg/mL). […] FIC index is a measure of synergy and is calculated as follows: FIC index=FIC (cefuroxime)+FIC (drug compound).

HA-MRSA [2] = test: Checkerboard (FIC) analysis, HA-MRSA (Table 1 r13); type: cell-based, Staphylococcus aureus; details: for MIC: Staphylococcus aureus
Method: as §3

[3] = system: S. aureus (Newman strain); test: Checkerboard (FIC) analysis against S. aureus Newman; type: cell-based, Staphylococcus aureus; details: for MIC: Staphylococcus aureus
HA-MRSA USA100/800/NY = test: Checkerboard (FIC) analysis, HA-MRSA USA100/800/NY; type: cell-based, Staphylococcus aureus; details: for MIC: Staphylococcus aureus
HA-MRSA [4] = test: Checkerboard (FIC) analysis, HA-MRSA (Table 1 r10); type: cell-based, Staphylococcus aureus; details: for MIC: Staphylococcus aureus
SA178R1 = test: Checkerboard (FIC) analysis, SA178R1; type: cell-based, Staphylococcus aureus; details: for MIC: Staphylococcus aureus
HA-MRSA USA600 = test: Checkerboard (FIC) analysis, HA-MRSA USA600; type: cell-based, Staphylococcus aureus; details: for MIC: Staphylococcus aureus
HA-MRSA EMRSA15 = test: Checkerboard (FIC) analysis, HA-MRSA EMRSA15; type: cell-based, Staphylococcus aureus; details: for MIC: Staphylococcus aureus
CA-MRSA USA400/MW2 = test: Checkerboard (FIC) analysis, CA-MRSA USA400/MW2; type: cell-based, Staphylococcus aureus; details: for MIC: Staphylococcus aureus
S. aureus strains = system: S. aureus strains
Method: as §1, §2

HA-MRSA USA500 = test: Checkerboard (FIC) analysis, HA-MRSA USA500; type: cell-based, Staphylococcus aureus; details: for MIC: Staphylococcus aureus
HA-MRSA USA200/EMRSA16 = test: Checkerboard (FIC) analysis, HA-MRSA USA200/EMRSA16; type: cell-based, Staphylococcus aureus; details: for MIC: Staphylococcus aureus
[5] = thienopyridine alone, CA-MRSA USA300 (Table 4), read-out: MIC thienopyridine
[6] = in the presence of cefuroxime, CA-MRSA USA300 (Table 4)
[7] = compound in combination with cefuroxime, MRSA (Table 5)
[8] = ticlopidine alone, read-out: MIC ticlopidine
[9] = novel analogue in combination with cefuroxime, MRSA (Table 6)
[10] = cefuroxime alone, read-out: MIC cefuroxime

SMILES: COC(=O)[C@H](c1ccccc1Cl)N1CCc2sccc2C1 [Compound 19, (+)-(S)-methyl 2-(2-chlorophenyl)-2-(6,7-dihydrothieno[3,2-c]pyridin-5(4H)-yl)acetate]
- MIC (CA-MRSA USA300; [5]): > 128 µg/mL
- FIC thienopyridine (CA-MRSA USA300; [6]): 0.13
- FIC index (CA-MRSA USA300; thienopyridine in combination with cefuroxime, CA-MRSA USA300 (Table 4), listed as Clopidogrel): ≦0.20
- FIC index (CA-MRSA USA300; thienopyridine in combination with cefuroxime, CA-MRSA USA300 (Table 4), listed as clopidogrel): ≤ 0.20
- FIC index (MRSA; [7]): ≦0.187

SMILES: Clc1ccccc1CN1CCc2sccc2C1 [Compound 1, 5-(2-Chloro-benzyl)-4,5,6,7-tetrahydro-thieno[3,2-c]pyridine]
- FIC ticlopidine (HA-MRSA [1]; HA-MRSA (Table 1 r16), in the presence of cefuroxime): 0.063
- FIC index (HA-MRSA [1]; HA-MRSA (Table 1 r16), ticlopidine + cefuroxime): ≦0.188
- MIC (HA-MRSA [1]; HA-MRSA (Table 1 r16), ticlopidine alone, read-out: MIC ticlopidine): > 256 µg/mL
- FIC ticlopidine (CA-MRSA USA300; CA-MRSA USA300 (Table 1), in the presence of cefuroxime): 0.032
- FIC index (CA-MRSA USA300; CA-MRSA USA300 (Table 1), ticlopidine + cefuroxime): ≦0.063
- MIC (CA-MRSA USA300; CA-MRSA USA300 (Table 1), ticlopidine alone, read-out: MIC ticlopidine): > 256 µg/mL
- MIC (CA-MRSA USA300; [5]): > 128 µg/mL
- drug-drug interaction with cefuroxime (checkerboard secondary screen) (CA-MRSA USA300; in combination with cefuroxime): synergistic interactions
- FIC thienopyridine (CA-MRSA USA300; [6]): 0.13
- FIC index (CA-MRSA USA300; thienopyridine in combination with cefuroxime, CA-MRSA USA300 (Table 4)): ≦0.16
- FIC index (CA-MRSA USA300; ticlopidine in combination with cefuroxime, CA-MRSA USA 300, FIG. 2): ≤ 0.12
- MIC (RN4220; Staphylococcus aureus, ticlopidine alone): > 128 µg/mL
- FIC ticlopidine (RN4220; in the presence of cefuroxime): 1
- FIC index (RN4220; ticlopidine + cefuroxime): ≦2
- FIC ticlopidine (HA-MRSA [2]; HA-MRSA (Table 1 r13), in the presence of cefuroxime): 0.016
- FIC index (HA-MRSA [2]; HA-MRSA (Table 1 r13), ticlopidine + cefuroxime): ≦0.266
- MIC (HA-MRSA [2]; HA-MRSA (Table 1 r13), ticlopidine alone, read-out: MIC ticlopidine): > 256 µg/mL
- FIC ticlopidine ([3]; Newman, in the presence of cefuroxime): 0.125
- FIC index ([3]; Newman, ticlopidine + cefuroxime): ≦0.250
- MIC ([3]; Newman, ticlopidine alone, read-out: MIC ticlopidine): > 256 µg/mL
- MIC (HA-MRSA USA100/800/NY; [8]): > 256 µg/mL
- FIC ticlopidine (HA-MRSA USA100/800/NY; in the presence of cefuroxime): 0.125
- FIC index (HA-MRSA USA100/800/NY; ticlopidine + cefuroxime): ≦0.250
- FIC ticlopidine (HA-MRSA [4]; HA-MRSA (Table 1 r10), in the presence of cefuroxime): 0.032
- FIC index (HA-MRSA [4]; HA-MRSA (Table 1 r10), ticlopidine + cefuroxime): ≦0.282
- MIC (HA-MRSA [4]; HA-MRSA (Table 1 r10), ticlopidine alone, read-out: MIC ticlopidine): > 256 µg/mL
- MIC (SA178R1; [8]): > 128 µg/mL
- FIC ticlopidine (SA178R1; in the presence of cefuroxime): 1
- FIC index (SA178R1; ticlopidine + cefuroxime): ≦2
- MIC (HA-MRSA USA600; [8]): > 256 µg/mL
- FIC ticlopidine (HA-MRSA USA600; in the presence of cefuroxime): 0.032
- FIC index (HA-MRSA USA600; ticlopidine + cefuroxime): ≦0.040
- MIC (HA-MRSA EMRSA15; [8]): > 256 µg/mL
- FIC ticlopidine (HA-MRSA EMRSA15; in the presence of cefuroxime): 0.063
- FIC index (HA-MRSA EMRSA15; ticlopidine + cefuroxime): ≦0.125
- MIC (CA-MRSA USA400/MW2; [8]): > 256 µg/mL
- FIC ticlopidine (CA-MRSA USA400/MW2; in the presence of cefuroxime): 0.063
- FIC index (CA-MRSA USA400/MW2; ticlopidine + cefuroxime): ≦0.125
- methicillin-resistant strains (Canadian MRSA collection) in which potent synergy was retained (S. aureus strains; ticlopidine + cefuroxime, including USA300): 7 of 10
- antibacterial activity alone (S. aureus strains; ticlopidine alone against the S. aureus strains of Table 1): no antibacterial activity alone
- potentiation of the activity of the β-lactams (S. aureus strains; ticlopidine in combination with a β-lactam, even in β-lactam-resistant S. aureus): over 32 fold
- FIC index (MRSA; [7]): ≦0.125
- MIC (HA-MRSA USA500; [8]): > 256 µg/mL
- FIC ticlopidine (HA-MRSA USA500; in the presence of cefuroxime): 1
- FIC index (HA-MRSA USA500; ticlopidine + cefuroxime): ≦2
- MIC (HA-MRSA USA200/EMRSA16; [8]): > 256 µg/mL
- FIC ticlopidine (HA-MRSA USA200/EMRSA16; in the presence of cefuroxime): 0.063
- FIC index (HA-MRSA USA200/EMRSA16; ticlopidine + cefuroxime): ≦0.095

SMILES: Clc1ccccc1CN1CCC2CCCCC2C1 (stereo not drawn) [Compound 13, 2-(2-Chloro-benzyl)-decahydro-isoquinoline]
- FIC index (MRSA; [7]): ≦2

SMILES: Fc1ccccc1CN1CCc2ccccc2C1 [Compound 15, 2-(2-Fluoro-benzyl)-1,2,3,4-tetrahydro-isoquinoline]
- FIC index (MRSA; [7]): ≦0.187

SMILES: Clc1ccccc1CN1CCCc2ccccc21 [Compound 9, 1-(2-Chloro-benzyl)-1,2,3,4-tetrahydro-quinoline]
- FIC index (MRSA; [7]): ≦0.187

SMILES: O=[N+]([O-])c1ccccc1CN1CCc2ccccc2C1 [Compound 16, 2-(2-Nitro-benzyl)-1,2,3,4-tetrahydro-isoquinoline]
- FIC index (MRSA; [7]): ≦0.187

SMILES: O=C(O)C(c1ccccc1Cl)N1CCc2sccc2C1 (stereo not drawn) [Compound 20]
- FIC index (MRSA; [7]): ≦0.75

SMILES: Clc1ccccc1CN1CCCC1 [Compound 11, 1-(2-Chloro-benzyl)-pyrrolidine]
- FIC index (MRSA; [7]): ≦2

SMILES: c1ccc2c(c1)CCN(Cc1ccc3ccccc3c1)C2 [Compound 3-novel, 2-Naphthalen-2-ylmethyl-1,2,3,4-tetrahydro-isoquinoline]
- FIC index (MRSA; [9]): ≦0.312

SMILES: Oc1ccc2c(c1)CN(Cc1ccccc1Cl)CC2 [Compound 2-novel, 2-(2-Chloro-benzyl)-1,2,3,4-tetrahydro-isoquinolin-7-ol]
- FIC index (MRSA; [9]): ≦2

SMILES: CO/N=C(\C(=O)N[C@@H]1C(=O)N2C(C(=O)O)=C(COC(N)=O)CS[C@H]12)c1ccco1 [Cefuroxime]
- FIC cefuroxime (HA-MRSA [1]; HA-MRSA (Table 1 r16), in the presence of ticlopidine): 0.125
- MIC (HA-MRSA [1]; HA-MRSA (Table 1 r16, no further strain name), cefuroxime alone, read-out: MIC cefuroxime): 2050 µg/mL
- FIC cefuroxime (CA-MRSA USA300; CA-MRSA USA300 (Table 1), in the presence of ticlopidine): 0.032
- MIC (CA-MRSA USA300; CA-MRSA USA300 (Table 1), cefuroxime alone, read-out: MIC cefuroxime): 512 µg/mL
- MIC (CA-MRSA USA300; cefuroxime alone, CA-MRSA USA300 (Table 4), read-out: MIC Cefuroxime): 256 µg/mL
- FIC index (CA-MRSA USA300; antibiotic in combination with ticlopidine, CA-MRSA USA 300, FIC (β-lactam)+FIC (ticlopidine)): ≦0.13
- FIC cefuroxime (CA-MRSA USA300; in the presence of clopidogrel, CA-MRSA USA300 (Table 4)): 0.063
- FIC cefuroxime (CA-MRSA USA300; in the presence of prasugrel, CA-MRSA USA300 (Table 4)): 0.25
- FIC cefuroxime (CA-MRSA USA300; in the presence of ticlopidine, CA-MRSA USA300 (Table 4)): 0.03
- FIC cefuroxime (RN4220; in the presence of ticlopidine): 1
- FIC cefuroxime (HA-MRSA [2]; HA-MRSA (Table 1 r13), in the presence of ticlopidine): 0.250
- MIC (HA-MRSA [2]; HA-MRSA (Table 1 r13, no further strain name), cefuroxime alone, read-out: MIC cefuroxime): > 2050 µg/mL
- FIC cefuroxime ([3]; Newman, in the presence of ticlopidine): 0.125
- MIC ([3]; Newman, cefuroxime alone, read-out: MIC cefuroxime): 2 µg/mL
- FIC index ([3]; antibiotic in combination with ticlopidine, S. aureus (Newman strain)): ≦0.25
- MIC (HA-MRSA USA100/800/NY; [10]): 1020 µg/mL
- FIC cefuroxime (HA-MRSA USA100/800/NY; in the presence of ticlopidine): 0.125
- FIC cefuroxime (HA-MRSA [4]; HA-MRSA (Table 1 r10), in the presence of ticlopidine): 0.250
- MIC (HA-MRSA [4]; HA-MRSA (Table 1 r10, no further strain name), cefuroxime alone, read-out: MIC cefuroxime): > 2050 µg/mL
- MIC (SA178R1; [10]): 0.5 µg/mL
- FIC cefuroxime (SA178R1; in the presence of ticlopidine): 1
- MIC (HA-MRSA USA600; [10]): ≥ 1020 µg/mL
- FIC cefuroxime (HA-MRSA USA600; in the presence of ticlopidine): 0.008
- MIC (HA-MRSA EMRSA15; [10]): 512 µg/mL
- FIC cefuroxime (HA-MRSA EMRSA15; in the presence of ticlopidine): 0.063
- MIC (CA-MRSA USA400/MW2; [10]): 256 µg/mL
- FIC cefuroxime (CA-MRSA USA400/MW2; in the presence of ticlopidine): 0.063
- MIC (HA-MRSA USA500; [10]): 32 µg/mL
- FIC cefuroxime (HA-MRSA USA500; in the presence of ticlopidine): 1
- MIC (HA-MRSA USA200/EMRSA16; [10]): 1020 µg/mL
- FIC cefuroxime (HA-MRSA USA200/EMRSA16; in the presence of ticlopidine): 0.032

SMILES: Clc1ccccc1C[n+]1ccc2ccccc2c1 [Compound 8, 2-(2-Chloro-benzyl)-isoquinolinium]
- FIC index (MRSA; [7]): ≦2
